Assay results taken from publication PMC6797236, “Bacillus subtilis PgcA moonlights as a phosphoglucosamine mutase in support of peptidoglycan synthesis” (PLoS Genetics, 2019).

Tests used:
Format in all cases: biochemical
PgcA [1] = biological target: T1, PgcA (Bacillus subtilis, UniProt P18159); test: LC-MS assay of glucose 6-phosphate formation; settings: 5 mM MgCl2, 20 uM glucose-1,6-bisphosphate, 50 mM Tris-HCl pH 8.0; PGM reaction
T1 construct: N-terminal 6xHis tag, tag cleavage not mentioned; expressed in E. coli DH5alpha, Ni-NTA purified
T1 sequence (P18159 1-581): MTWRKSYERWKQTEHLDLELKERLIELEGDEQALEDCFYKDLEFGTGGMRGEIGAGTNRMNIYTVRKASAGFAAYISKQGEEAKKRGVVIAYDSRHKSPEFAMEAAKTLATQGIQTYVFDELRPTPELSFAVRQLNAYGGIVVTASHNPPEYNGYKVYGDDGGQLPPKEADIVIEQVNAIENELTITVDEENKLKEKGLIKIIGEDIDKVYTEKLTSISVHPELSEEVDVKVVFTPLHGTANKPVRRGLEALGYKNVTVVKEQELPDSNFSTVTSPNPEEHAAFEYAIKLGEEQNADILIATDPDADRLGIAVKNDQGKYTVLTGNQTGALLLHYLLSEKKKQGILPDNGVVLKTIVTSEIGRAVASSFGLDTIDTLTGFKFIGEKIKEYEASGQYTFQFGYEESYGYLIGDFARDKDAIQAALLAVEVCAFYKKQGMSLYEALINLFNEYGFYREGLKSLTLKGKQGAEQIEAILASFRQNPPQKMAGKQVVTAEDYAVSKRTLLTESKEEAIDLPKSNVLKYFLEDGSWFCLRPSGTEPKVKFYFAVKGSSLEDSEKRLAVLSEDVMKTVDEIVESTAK

GlmM = biological target: T2, GlmM (Bacillus subtilis, UniProt O34824); test: LC-MS assay of glucosamine 6-phosphate formation; settings: 5 mM MgCl2, 0.7 mM glucose-1,6-bisphosphate, 50 mM Tris-HCl pH 8.0; PNGM reaction
T2 construct: purified protein; tag and expression of GlmM not described separately
T2 sequence (O34824 1-448): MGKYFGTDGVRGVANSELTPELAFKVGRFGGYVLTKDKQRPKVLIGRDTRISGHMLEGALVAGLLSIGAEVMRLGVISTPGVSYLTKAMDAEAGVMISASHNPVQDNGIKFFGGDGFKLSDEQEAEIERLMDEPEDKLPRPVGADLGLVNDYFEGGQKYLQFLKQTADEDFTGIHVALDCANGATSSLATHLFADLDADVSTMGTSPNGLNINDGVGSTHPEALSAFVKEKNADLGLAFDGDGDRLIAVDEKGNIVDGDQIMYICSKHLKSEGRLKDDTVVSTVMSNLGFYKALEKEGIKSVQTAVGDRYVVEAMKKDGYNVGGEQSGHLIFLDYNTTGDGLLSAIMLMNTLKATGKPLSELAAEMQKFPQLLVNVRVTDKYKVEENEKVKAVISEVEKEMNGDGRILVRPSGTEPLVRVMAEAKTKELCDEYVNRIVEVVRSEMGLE

PgcA [2] = biological target: T1, PgcA; test: LC-MS assay of glucosamine 6-phosphate formation; settings: 5 mM MgCl2, 20 uM glucose-1,6-bisphosphate, 50 mM Tris-HCl pH 8.0; PNGM reaction

Structure (SMILES) | KM (PgcA [1]) | KM (GlmM) | KM (PgcA [2])
O=P(O)(O)O[C@H]1O[C@H](CO)[C@@H](O)[C@H](O)[C@H]1O [Glc-1-P] | Both PgcA and PgcA G47S were equally active in the PGM reaction | – | –
N[C@H]1[C@@H](OP(=O)(O)O)O[C@H](CO)[C@@H](O)[C@@H]1O [GlcN-1-P] | – | GlmM from B. subtilis, which had an affinity for GlcN-1-P substrate | using GlcN-1-P as substrate to monitor the PNGM reaction
